In ChEMBL document CHEMBL1136539, “N-ferrocenylmethyl, N'-methyl-2-substituted benzimidazolium iodide salts with in vitro activity against the Leishmania infantum parasite strain L1” (Bioorg Med Chem Lett, 2003) one finds IC50 data, which are given here for one molecule.

One may read the IC50 as the point on the concentration scale where inhibition reaches its midpoint. Higher therefore signals lower potency.

Molecules are shown by their SMILES.

The assay has as its system Leishmania infantum. Briefly: Inhibitory activity against Leishmania infantum parasite L1 strain. The class given is functional, organism-based.

In turn, `C[C@@H]1[C@H](O)[C@@H](C)/C=C/C=C/C=C/C=C/C=C/C=C/C=C/[C@H](O[C@@H]2O[C@H](C)[C@@H](O)[C@H](N)[C@@H]2O)C[C@@H]2O[C@](O)(C[C@@H](O)C[C@@H](O)[C@H](O)CC[C@@H](O)C[C@@H](O)CC(=O)O[C@H]1C)C[C@H](O)[C@H]2C(=O)O` [AMPHOTERICIN B] returned an IC50 of less than 6.25 µM.
